In US7307044B2, “3-biphenyl-substituted-3-substituted-4-ketolactam and ketolactone and their utilization as pesticide” (Bayer CropScience AG, priority 2001, dated 2007):

Tests used:
[1] = system: larvae of the mustard beetle (Phaedon cochleariae); test: Phaedon larvae test; assay type: in vivo; conditions: cabbage leaves dipped
Experimental: (§1) Phaedon Larvae Test Solvent: 7 parts by weight of dimethylformamide Emulsifier: 2 parts by weight of alkylaryl polyglycol ether To produce a suitable preparation of active compound, 1 part by weight of active compound is mixed with the stated amounts of solvent and emulsifier, and the concentrate is diluted with emulsifier-containing water to the desired concentration. Cabbage leaves (Brassica oleracea) are treated by being dipped into the preparation of active compound of the desired concentration and are populated with larvae of the mustard beetle (Phaedon cochleariae) while the leaves are still moist. After the desired period of time, the kill in % is determined. 100% means that all beetle larvae have been killed; 0% means that none of the beetle larvae have been killed.

[2] = system: caterpillars of the diamondback moths (Plutella xylostella); test: Plutella test; assay type: in vivo; conditions: 500 ppm, cabbage leaves dipped
Experimental: as §1, with “Plutella” for “Phaedon Larvae”, “caterpillars” for “larvae”, “diamondback moths (Plutella xylostella)” for “mustard beetle (Phaedon cochleariae)”, “caterpillars” for “beetle larvae”

[3] = system: caterpillars of the armyworm (Spodoptera exigua); test: Spodoptera exigua test; assay type: in vivo; conditions: 500 ppm, cabbage leaves dipped
Experimental: as §1, with “Spodoptera exigua” for “Phaedon Larvae”, “caterpillars” for “larvae”, “armyworm (Spodoptera exigua)” for “mustard beetle (Phaedon cochleariae)”, “caterpillars” for “beetle larvae”

[4] = system: caterpillars of the armyworm (Spodoptera frugiperda); test: Spodoptera frugiperda test; assay type: in vivo; conditions: cabbage leaves dipped
Experimental: as §1, with “Spodoptera frugiperda” for “Phaedon Larvae”, “caterpillars” for “larvae”, “armyworm (Spodoptera frugiperda)” for “mustard beetle (Phaedon cochleariae)”, “caterpillars” for “beetle larvae”

[5] = system: greenhouse red spider mite (Tetranychus urticae); test: Tetranychus test (OP-resistent/dip treatment); assay type: in vivo; conditions: 100 ppm, bean plants dipped
Experimental: Tetranychus Test (OP-Resistent/Dip Treatment)
Solvent: 7 parts by weight of dimethylformamide
Emulsifier: 2 parts by weight of alkylaryl polyglycol ether
To produce a suitable preparation of active compound, 1 part by weight of active compound is mixed with the stated amounts of solvent and emulsifier, and the concentrate is diluted with emulsifier-containing water to the desired concentration.
Bean plants (Phaseolus vulgaris) which are heavily infested by all stages of the greenhouse red spider mite (Tetranychus urticae) are dipped into a preparation of active compound of the desired concentration.
After the desired period of time, the effect in % is determined. 100% means that all spider mites have been killed; 0% means that none of the spider mites have been killed.

Alopecurus = test: Post-emergence test (greenhouse); assay type: in vivo; conditions: 250 g ai/ha, after three weeks
Experimental: (§2) Solvent: 5 parts by weight of acetone
(§3) Emulsifier: 1 part by weight of alkylaryl polyglycol ether
(§4) To produce a suitable preparation of active compound, 1 part by weight of active compound is mixed with the stated amount of solvent, the stated amount of emulsifier is added and the concentrate is diluted with water to the desired concentration.
(§5) Test plants of a height of 5-15 cm are sprayed with the preparation of active compound such that the particular amounts of active compound desired are applied per unit area. The concentration of the spray liquor is chosen such that the particular amounts of active compound desired are applied in 1000 l of water/ha.
(§6) After three weeks, the degree of damage to the plants is rated in % damage in comparison to the development of the untreated control.
(§7) The figures denote: • 0%=no effect (like untreated control) • 100%=total destruction

Avena fatua = test: Post-emergence test (greenhouse); assay type: in vivo; conditions: 250 g ai/ha, after three weeks
Experimental: as §2, §3, §4, §5, §6, §7

Echinochloa = test: Post-emergence test (greenhouse); assay type: in vivo; conditions: 250 g ai/ha, after three weeks
Experimental: as §2, §3, §4, §5, §6, §7

Setaria = test: Post-emergence test (greenhouse); assay type: in vivo; conditions: 250 g ai/ha, after three weeks
Experimental: as §2, §3, §4, §5, §6, §7

Sugar beet = test: Post-emergence test (greenhouse); assay type: in vivo; conditions: 250 g ai/ha, after three weeks
Experimental: as §2, §3, §4, §5, §6, §7

Plasmopara viticola = test: Plasmopara test (grapevine)/protective; assay type: in vivo; conditions: protective, 100 g/ha, evaluation 6 days after inoculation
Experimental: Plasmopara Test (Grapevine)/Protective Solvents: 24.5 parts by weight of acetone • 24.5 parts by weight of dimethylacetamide Emulsifier: 1.0 part by weight of alkylaryl polyglycol ether To produce a suitable preparation of active compound, 1 part by weight of active compound is mixed with the stated amounts of solvent and emulsifier, and the concentrate is diluted with water to the desired concentration. To test for protective activity, young plants are sprayed with the preparation of active compound at the stated application rate. After the spray coating has dried on, the plants are inoculated with an aqueous spore suspension of Plasmopara viticola and then remain in an incubation cabin at 20° C. and 100% relative atmospheric humidity for 1 day. The plants are then placed in a greenhouse at about 21° C. and about 90% atmospheric humidity for 4 days. The plants are then moistened and placed in an incubation cabin for 1 day.

[6] = system: apple scab pathogen Venturia inaequalis; test: Venturia test (apple)/protective; assay type: in vivo; conditions: protective, 100 g/ha, evaluation 10 days after inoculation
Experimental: Venturia Test (Apple)/Protective Solvents: 24.5 parts by weight of acetone • 24.5 parts by weight of dimethylacetamide Emulsifier: 1.0 part by weight of alkylaryl polyglycol ether To produce a suitable preparation of active compound, 1 part by weight of active compound is mixed with the stated amounts of solvent and emulsifier, and the concentrate is diluted with water to the desired concentration. To test for protective activity, young plants are sprayed with the preparation of active compound at the stated application rate. After the spray coating has dried on, the plants are inoculated with an aqueous conidia suspension of the apple scab pathogen Venturia inaequalis and then remain in an incubation cabin at about 20° C. and 100% relative atmospheric humidity for 1 day. The plants are then placed in a greenhouse at about 21° C. and a relative atmospheric humidity of about 90%.

physchem = assay type: physicochemical; conditions: for log P: pH 2.3
Experimental: The stated log P values were determined in accordance with EEC Directive 79/831 Annex V.A8 by HPLC (High Performance Liquid Chromatography) using a reversed-phase column (C 18). Temperature: 43° C. • (a) Mobile phases for the determination in the acidic range: 0.1% aqueous phosphoric acid, acetonitrile; linear gradient from 10% acetonitrile to 90% acetonitrile. • (b) Mobile phases for the determination in the neutral range: 0.01 molar aqueous phosphate buffer solution, acetonitrile; linear gradient from 10% acetonitrile to 90% acetonitrile.
Calibration was carried out using unbranched alkan-2-ones (of 3 to 16 carbon atoms) with known log P values (determination of the log P values by the retention times using linear interpolation between two successive alkanones).

[7] = system: green peach aphid (Myzus persicae); test: Myzus test; assay type: in vivo; conditions: 500 ppm, cabbage leaves dipped
Experimental: as §1, with “Myzus” for “Phaedon Larvae”, “oleracea) which are heavily infested by the green peach aphid (Myzus persicae)” for “oleracea)”, “concentration.” for “concentration and are populated with larvae of the mustard beetle (Phaedon cochleariae) while the leaves are still moist.”, “aphids” for “beetle larvae”

Amaranthus = test: Post-emergence test (greenhouse); assay type: in vivo; conditions: 250 g ai/ha, after three weeks
Experimental: as §2, §3, §4, §5, §6, §7

| log P (physchem) | Structure (SMILES) | Kill rate in % after 7 d ([1]; 500 ppm) [%] | Kill rate in % after 7 d ([4]; 500 ppm) [%] | Kill rate in % after 7 d [5] [%] | degree of damage to the plants in % damage (Alopecurus) [%] | degree of damage to the plants in % damage (Avena fatua) [%] | degree of damage to the plants in % damage (Echinochloa) [%] | degree of damage to the plants in % damage (Setaria) [%] | Kill rate in % after 6 d [7] [%] | also measured |
| --- | --- | --- | --- | --- | --- | --- | --- | --- | --- | --- |
| – | Cc1ccc(-c2ccc(Cl)cc2)cc1C1(Cl)C(=O)NC(C)(C(C)C)C1=O (stereo not shown) [Ex. I-1-11] | 100 | 100 | 99 | 95 | 90 | 100 | 100 | – | Kill rate in % after 7 d [2]: 100%; Kill rate in % after 7 d [3]: 90%; degree of damage to the plants in % damage (Sugar beet): 0%; % efficacy (Plasmopara viticola): 100%; % efficacy [6]: 100% |
| log P 5.59 | CCOC1CCC2(CC1)OC(=O)C(Cl)(c1c(C)cc(-c3ccc(Cl)cc3)cc1CC)C2=O (stereo not shown) [I-2-13] | – | – | – | – | – | – | – | – | – |
| – | Cc1ccc(-c2ccc(Cl)c(Cl)c2)cc1C1(Cl)C(=O)NC(C)(C)C1=O (stereo not shown) [Ex. I-1-15] | 100 | 100 | 99 | – | – | – | – | 95 | Kill rate in % after 7 d [2]: 100%; Kill rate in % after 7 d [3]: 100% |
| – | Cc1cc(C)c(C2(Cl)C(=O)NC3(CCOCC3)C2=O)cc1-c1ccc(Cl)cc1 (stereo not shown) [Ex. I-1-6] | 100 | 100 | 99 | 70 | 100 | 100 | 95 | 98 | degree of damage to the plants in % damage (Amaranthus): 70%; % efficacy (Plasmopara viticola): 94%; % efficacy [6]: 99% |
| – | Cc1ccc(-c2cccc(Cl)c2)cc1C1(Cl)C(=O)NC(C)(C)C1=O (stereo not shown) [Ex. I-1-3] | 100 | – | – | – | – | – | – | – | – |
| log P 5.11 | Cc1cc(-c2ccc(Cl)cc2)cc(C)c1C1(Cl)C(=O)OC(C)(C)C1=O (stereo not shown) [I-2-14] | – | – | – | – | – | – | – | – | – |
| – | COC1CCC2(CC1)NC(=O)C(Cl)(c1cc(-c3ccc(Cl)c(Cl)c3)ccc1C)C2=O (stereo not shown) [Ex. I-1-13] | 100 | 100 | 95 | 95 | 90 | 100 | 90 | 100 | Kill rate in % after 7 d [2]: 100%; Kill rate in % after 7 d [3]: 100%; % efficacy (Plasmopara viticola): 94% |
| – | Cc1ccc(-c2ccc(Cl)cc2)cc1C1(Cl)C(=O)OC(C)(C)C1=O (stereo not shown) [Ex. I-2-1] | – | – | 98 | – | – | – | – | – | Kill rate in % after 7 d ([1]; 1000 ppm): 100%; Kill rate in % after 7 d ([4]; 1000 ppm): 100%; chromatographic logP (physchem; pH 2.5): 4.8 |
| log P 4.91 | Cc1cc(-c2ccc(Cl)cc2)cc(C)c1C1(Cl)C(=O)OC2(CCCOC2)C1=O (stereo not shown) [I-2-17] | – | – | – | – | – | – | – | – | – |
| log P 4.30 | Cc1ccc(-c2cccc(F)c2)cc1C1(Cl)C(=O)OC(C)(C)C1=O (stereo not shown) [I-2-11] | – | – | – | – | – | – | – | – | – |
| log P 5.05 | CCc1ccc(-c2ccc(Cl)cc2)cc1C1(Cl)C(=O)OC(C)(C)C1=O (stereo not shown) [I-2-7] | – | – | – | – | – | – | – | – | – |
| – | COC1CCC2(CC1)NC(=O)C(Cl)(c1cc(-c3cccc(Cl)c3)ccc1Cl)C2=O (stereo not shown) [Ex. I-1-12] | 100 | 100 | 100 | – | – | – | – | – | Kill rate in % after 7 d [2]: 100%; % efficacy (Plasmopara viticola): 94% |
| – | Cc1ccc(-c2ccc(Cl)cc2)cc1C1(Cl)C(=O)NC2(CCOCC2)C1=O (stereo not shown) [Ex. I-1-14] | 100 | 100 | 99 | 80 | 100 | 100 | 100 | 100 | degree of damage to the plants in % damage (Sugar beet): 0%; % efficacy (Plasmopara viticola): 100% |
| log P 5.61 | Cc1ccc(-c2ccc(Cl)cc2)cc1C1(Cl)C(=O)OC(C)(C(C)C)C1=O (stereo not shown) [I-2-5] | – | – | – | – | – | – | – | – | – |
| – | Cc1ccc(-c2ccc(Cl)cc2)cc1C1(Cl)C(=O)SC2(CCCCC2)C1=O (stereo not shown) [Ex. I-3-1] | 100 | – | – | – | – | – | – | – | – |
| – | CCOC1CCC2(CC1)NC(=O)C(Cl)(c1c(C)cc(-c3ccc(Cl)cc3)cc1Cl)C2=O (stereo not shown) [Ex. I-1-9] | 100 | – | – | 95 | 100 | 100 | 100 | 95 | – |
| – | Cc1cc(C)c(C2(Cl)C(=O)NC3(CCCOC3)C2=O)cc1-c1ccc(Cl)cc1 (stereo not shown) [Ex. I-1-7] | 100 | 100 | 98 | 90 | 95 | 100 | 100 | 100 | – |
| log P 5.56 | Cc1cc(C)c(C2(Cl)C(=O)OC3(CCCC3)C2=O)cc1-c1ccc(Cl)cc1 (stereo not shown) [I-2-6] | – | – | – | – | – | – | – | – | – |
